# Measured values taken from US20240368123A1, “AROMATIC RING-CONTAINING BIOLOGICAL ANTAGONIST, AND PREPARATION METHOD THEREFOR AND USE THEREOF” (SHANGHAI HANSOH BIOMEDICAL CO., LTD., priority 2021, published 2024).
# Assays:
# [1] = Rat pharmacokinetic evaluation test, oral administration; assay type: in vivo; settings: male, SD rats, p.o. 5 mg/kg, plasma; for MRT inf: read-out: MRT0-∞
# Procedure: SD rats were used as test animals to study the pharmacokinetic behavior of the compounds of the present invention in the rat body (plasma) after oral administration at a dose of 5 mg/kg.
# 3 SD rats/group, male, from Shanghai Jiesijie Experimental Animal Co., Ltd., animal production license number (SCXK (Shanghai) 2013-0006 N0.311620400001794).
# • 0.5% CMC-Na (1% Tween80) was dissolved with ultrasound, and formulated into a clear solution or homogeneous suspension.
# • p.o. respectively after the rats were fasted overnight; • the p.o. dose was 5 mg/kg and the administration volume was 10 mL/kg.
# After oral administration of rats, 0.2 mL of blood was collected from the jugular vein at 0.25 h, 0.5 h, 1.0 h, 2.0 h, and 4.0 h, placed in an EDTA-2K test tube, centrifuged at 6000 rpm for 6 min at 4° C. to separate plasma which was stored at −80° C.; the rats can eat 4 h after administration.
# • 1) 160 μL of acetonitrile was added to 40 μL of plasma sample for precipitation, mixed and centrifuged at 3500×g for 5 to 20 min. • 2) the treated supernatant solution was taken and subjected to LC/MS/MS to analyze the concentrations of the test compounds. LC/MS/MS analysis instrument: AB Sciex API 4000 Qtrap.
# • Liquid phase conditions: Shimadzu LC-20AD pump • chromatographic column: AgilentZORBAX XDB-C18 (50×2.1 mm, 3.5 μm) mobile phase: liquid A was 0.1% aqueous formic acid solution, liquid B was acetonitrile • flow rate: 0.4 mL/min • Elution time: 0-4.0 min, the eluent was as follows:
# The main pharmacokinetic parameters were calculated using WinNonlin 6.1.
# [2] = Liver microsomal metabolism stability test, dog; assay type: in vitro ADME; settings: for half-life at 1 μM: dog liver microsomes 0.5 mg/mL, compound 1 μM, NADPH/UDPGA; for Remaining rate: dog liver microsomes, 60 min
# Procedure: The purpose of this experiment was to detect the stability of the example compounds in liver microsomes of rats, dogs and humans.
# • Formulation of working solution of compounds: compound stock solution was added to phosphate buffer to a final concentration of 20 μM.
# Dilution was performed with 100 mM phosphate buffer to a final concentration of 0.625 mg/mL.
# NADPH (reduced nicotinamide adenine dinucleotide phosphate) and UDPGA (uridine diphosphate glucuronic acid) were weighed, 100 mM phosphate buffer was added, and the final concentration was 20 mM.
# 1 mg of Alamethicin was weighed, and 200 μL of DMSO was added to formulate a 5 mg/mL solution. Then dilution was performed with phosphate buffer to a final concentration of 50 μg/mL.
# Stop solution: the stop solution contains 100 ng/mL labetalol hydrochloride and 400 ng/mL tolbutamide and cold acetonitrile as internal standard.
# 400 μL of formulated liver microsomes, 25 μL of compound working solution and 25 μL of Alamethicin were added in sequence to the 96-well plate, and pre-incubated at 37° C. for 10 min. Then 50 μL of formulated NADPH/UDPGA was added to start the reaction and the mixture was incubated at 37° C. The total volume of the reaction system was 500 μL. The final contents of each component are as follows:
# • Instrument: Shimadzu LC-30 AD; • Chromatographic column: XBridge® C18 (50*4.6 mm, 5 μm particle size); • Mobile phase: A: 0.1% formic acid solution, B: methanol Wash gradient: 0.2-1.6 min 5% A to 95% A, 3.0-3.1 min 95% A to 5% A Run time: 4.0 min.
# • Instrument: API5500 liquid chromatography mass spectrometer, AB Sciex; • Ion source: electrospray ionization source (ESI); • Drying gas: N2, temperature 500° C.; • Electrospray voltage: 5000 V; • Detection mode: positive ion detection; • Scanning mode: reaction monitoring (MRM) mode.
# [3] = test system: spontaneously hypertensive rat (SHR) model; test: Pharmacodynamic evaluation on blood pressure in spontaneously hypertensive rats; assay type: in vivo; settings: P.O, 30 mpk, 1-8 h after administration, P<0.05
# Description: This experiment used a spontaneously hypertensive rat (SHR) model to evaluate the pharmacodynamic effect of the test compounds on the blood pressure and heart rate of the model.
# Kent Scientific CODA non-invasive blood pressure system.
# Spontaneously hypertensive rats (SHR) were provided by Beijing Vital River Laboratory Animal Technology Co., Ltd., male, 150-200 g, 13-15 weeks old, 50 rats.
# After animals arrived at the experimental facility, the animals were adapted to the animal facility for 5-7 days. 4.2 After the adaptation period, the animals were adapted to the tail oversleeve restrain for 3 days, and the tail oversleeve restrain was performed twice a day. After the last restrain adaptation, the basal blood pressure was measured, and the animals were randomly divided into groups according to the basal blood pressure. There was no significant difference between the average systolic blood pressure of animals in each group, and the number of animals in each group met the requirements of statistical testing and pharmacodynamic guidelines. 4.3 On the second day after grouping, the animals were administered according to experimental design and grouping (P.O, 5 mL/kg), and the systolic blood pressure (SBP), diastolic blood pressure (DBP), mean arterial pressure (MAP) and heart rate (HR) of the animals were measured before administration and at 1, 2, 4, 6, 8 and 24 h after administration using tail oversleeve method.
# Statistical differences between groups were analyzed by Two-way ANOVA test. Among them, P<0.05 indicated a significant difference, and P<0.01 indicated an extremely significant difference.
# [4] = target: T1, CYP450 enzyme subtype 2C19 (Homo sapiens, UniProt P33261); test: CYP enzyme single point inhibition test, 2C19; assay type: in vitro ADME; settings: human liver microsomes, single point method
# T1 construct: Human liver microsome incubation system was used; from tissue; host or cells: human liver microsomes
# T1 sequence (P33261 whole entry): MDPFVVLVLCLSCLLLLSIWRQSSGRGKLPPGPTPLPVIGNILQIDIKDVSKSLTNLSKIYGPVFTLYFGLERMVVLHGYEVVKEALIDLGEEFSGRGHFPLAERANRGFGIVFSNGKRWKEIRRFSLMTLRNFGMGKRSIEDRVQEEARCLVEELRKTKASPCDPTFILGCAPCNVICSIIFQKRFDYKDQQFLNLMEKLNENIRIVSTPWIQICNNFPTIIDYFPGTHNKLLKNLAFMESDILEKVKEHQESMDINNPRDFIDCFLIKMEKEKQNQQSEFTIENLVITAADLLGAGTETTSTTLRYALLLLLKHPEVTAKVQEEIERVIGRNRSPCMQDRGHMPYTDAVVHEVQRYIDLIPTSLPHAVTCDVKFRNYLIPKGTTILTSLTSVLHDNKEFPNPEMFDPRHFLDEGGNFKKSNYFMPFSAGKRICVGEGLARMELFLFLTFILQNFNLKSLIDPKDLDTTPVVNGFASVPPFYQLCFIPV
# Procedure: Human liver microsome incubation system was used, and the single point method was used to quickly predict the inhibition on CYP450 enzyme subtypes (1A2, 2C19, 2D6, 3A4-M, and 3A4-T) by compounds.
# For 2.5 mM NADPH, 4.165 mg of NADPH (reduced nicotinamide adenine dinucleotide phosphate) was weighed and 100 mM phosphate buffer was added to 2 mL. For 0.25 mg/mL microsomes, 50 μL of 20 mg/mL microsomes was added to 4 mL of 100 mM phosphate buffer and mixed evenly.
# The test example compound was weighed, diluted to 10 mM with DMSO, and then diluted to 100 μM with 100 mM phosphate buffer.
# • 1. 40 μL of liver microsomes, 10 μL of substrate, and 10 μL of test compound were added in a 96-well plate and the mixture was pre-incubated for 3 min. • 2. 40 μL of NADPH was added. • 3. At 20 min, 300 μL of acetonitrile stop solution containing internal standard was added. • 4. The mixture was centrifuged and the sample was loaded.
SMILES,AUC(0-inf) [1],Cmax [1],Tmax [1],MRT inf [1],half-life at 1 μM [2],Remaining rate [2],"blood pressure (systolic blood pressure, diastolic blood pressure, mean arterial pressure) compared with the vehicle group [3]",IC50 [4]
"CCCCC1=NC2(CC3CC3C2)C(=O)N1Cc1ccc(-c2ccccc2S(=O)(=O)Nc2noc(C)c2C)c(COCC)c1 (centres unmarked) [Example 87, 4′-((2′-butyl-5′-oxaspiro[bicyclo[3.1.0]hexane-3,4′-imidazole]-1′(5′H)-yl)methyl)-N-(4,5-dimethylisoxazol-3-yl)-2′-(ethoxymethyl)-[1,1′-biphenyl]-2-sulfonamide]",9760 ng·h/mL,2630 ng/mL,30 min,228 min,–,–,–,–
"[2H]C([2H])(OCC)c1cc(CN2C(=O)C3(CCCC3)N=C2CCCC)ccc1-c1ccccc1S(=O)(=O)Nc1noc(C)c1Cl [Example 49, 4′-((2-butyl-4-oxo-1,3-diazospiro[4.4]non-1-en-3-yl)methyl)-N-(4-chloro-5-methylisoxazol-3-yl)-2′-(ethoxydeuteriummethyl)-[1,1′-biphenyl]-2-sulfonamide]",–,–,–,–,29.5 min,23.9%,significantly reduced blood pressure,–
"CCCCC1=NC2(CCCC2)C(=O)N1Cc1ccc(-c2ccccc2S(=O)(=O)Nc2noc(C)c2Br)c(COCC)c1 [Example 46, 2-[4-[(2-butyl-4-oxo-1,3-diazaspiro[4.4]non-1-en-3-yl)methyl]-2-(ethoxymethyl)phenyl]-N-(4-bromo-5-methyl-isoxazol-3-yl)benzsulfamide]",13800 ng·h/mL,2300 ng/mL,30 min,396 min,22.2 min,15.4%,–,> 100 µM
